Reference: patent US11718610B2, “Compounds containing benzosultam” (MEDSHINE DISCOVERY INC., priority 2020, dated 2023)

What was measured:
[1] = system: A375 cells; assay: A375 (BRAF V600E) antiproliferative activity experiment (CellTiter-glo); type: cell-based; settings: Homo sapiens, A-375, 120 h, cultured 5 days
Experimental: Experimental Embodiment 3: A375 (BRAF^V600E) Antiproliferative Activity Experiment
Cell line A375 (purchased from Procell). DMEM culture medium, penicillin/streptomycin antibiotics were purchased from Vicente, and fetal bovine serum was purchased from Biosera. CellTiter-glo (cell viability chemiluminescence detection reagent) reagent was purchased from Promega.
A375 cells were seeded in a white 96 well plate with […] of cell suspension per well containing 2000 of A375 cells. The cell plate was placed in a carbon dioxide incubator and cultured overnight. The compound to be tested was diluted 3-fold to the 9th concentration with a pipette, that is, diluted from 6 mmol to 0.91 μmol, and a double-duplicate experiment was set-up, 78 μmol of culture medium was added to the middle plate, then 2 μmol of gradient dilution compound per well was transferred to the middle plate according to the corresponding position, and 20 μmol per well was mixed and transferred to the cell plate. The concentration of the compound transferred to the cell plate ranged from 30 μmol to 4.57 nmol. The cell plate was placed in a carbon dioxide incubator and cultured for 5 days. Another cell plate was prepared, and the signal value was read as the maximum value (max value in the following equation) on the day of administration to participate in data analysis, 25 μmol of cell viability chemiluminescence detection reagent was added to each well of the cell plate and incubated at room temperature for 10 minutes to stabilize the luminescence signal. A multi-marker analyzer reading was used. After the incubation of the cell plate added with the compound was finished, 25 μmol of cell viability chemiluminescence detection reagent was added to each well of the cell plate and incubated at room temperature for 10 minutes to stabilize the luminescence signal. A multi-marker analyzer reading was used.
The equation (Sample−Min)/(Max−Min)*100% was used to convert the original data into inhibition rate, and the IC50 value could be obtained by curve fitting with four parameters (obtained by “log (inhibitor) vs. response—variable slope” mode in GraphPad Prism).

[2] = system: human lung cancer Calu-6 cell subcutaneous xenograft tumor; assay: In vivo pharmacodynamic experiment, BALB/c nude mouse model of subcutaneous xenograft tumors of human lung cancer Calu-6 cells; settings: 50 mg/kg oral (PO) once a day (QD), Calu-6 xenograft in BALB/c nude mice, vs solvent control; P<0.01
Experimental: Experimental Embodiment 7: In Vivo Pharmacodynamic Experiment of the BALB/c Nude Mouse Model of Subcutaneous Xenograft Tumors of Human Lung Cancer Calu-6 Cells
Age of arrival: 6 to 8 weeks old
Cells: Calu-6 cells of human lung cancer were cultured in vitro, and 0.2 Units/mL bovine insulin, 10% fetal bovine serum were added to EMEM culture medium in a 37° C. and 5% CO2 incubator for culture. Conventional digestion with trypsin-EDTA was performed twice a week for passage. When the cell saturation was 80%-90% and the number of the cells reached the requirement, and the cells were collected, counted, and seeded.
Cell inoculation: 0.2 mL of Calu-6 cell (mixed in a ratio of 1:1 with matrix gel) was subcutaneously inoculated on the right back of each mouse, and group administration was started when the average tumor volume reached […],
Tumor diameters were measured with vernier calipers twice a week. The calculation formula of tumor volume was: V=0.5a×b^2, and a and b represent the long and short diameters of the tumor, respectively.
The tumor inhibition efficacy of the compounds was evaluated by TGI (%) or relative tumor proliferation rate T/C (%). Relative tumor proliferation rate T/C (%)=TRTV/CRTV×100% (TRTV: RTV in the treatment group; CRTV: RTV in the negative control group). The relative tumor volume (RTV) was calculated according to the results of tumor measurement, and the formula was RTV=Vt/V0, wherein V0 was the tumor volume measured at the time of group administration (i.e., D0), and Vt was the tumor volume measured at a certain measurement, and TRTV and CRTV were taken on the same day.
TGI (%), reflecting the tumor growth inhibition rate. TGI (%)=[1−(average tumor volume at the end of administration in a treatment group−average tumor volume at the beginning of administration in this treatment group)/(average tumor volume at the end of treatment in a solvent control group−average tumor volume at the beginning of treatment in this solvent control group)]×100%.
Statistical analysis was based on the data of RTV at the end of the experiment, and SPSS software was used for analysis. One-way ANOVA was used for comparison between two groups, and the variance was uneven (there was significant difference in F value), and Games-Howell method was used to test, p<0.05 was considered a significant difference.

[3] = system: ERK phosphorylation in Calu-6 cells; assay: Calu-6 (Kras Q61K) ERK phosphorylation inhibition experiment (HTRF); type: cell-based, human; settings: Homo sapiens, Calu-6, 1 h, 1 hour incubation with compound
Experimental: Experimental Embodiment 5: Calu-6 (Kras^Q61K) ERK Phosphorylation Inhibition Experiment
1) the cells were resuscitated and cultured to logarithmic growth phase, digested with trypsin, seeded in 96-well plates with 30000 cells per well, and incubated overnight in an incubator.
2) 1 μL of gradient compound dissolved with DMSO was added to a 96-well plate and placed back into an incubator to incubate for 1 hour.
3) The cell plates were removed out, and the culture medium was poured off, and 50 μL of cell lysate (with 1% blocking peptide) was added to each well.
4) The lysate plate was mixed at 500 rpm and incubated and lysed at room temperature for 30 minutes.
5) The antibody mixture in the kit was prepared at a ratio of 1:1:38.
6) 16 μL of cell lysate was transferred to the HTRF plate per well, then the 4 μL of the configured antibody mixture was added thereto.
7) After incubation overnight, the plate was read with Envision, and the fitted curve was obtained according to the ratio (the ratio of fluorescence intensity of […]) and the EC50 was calculated according to the four-parameter fitting formula Y=Bottom+(Top−Bottom)/(1+10^((Log EC50−X)*HillSlope)) of Graphpad.

[4] = Pharmacokinetics of single intravenous and oral administration in dogs; type: in vivo; settings: dog
Experimental: Experimental Embodiment 6: Pharmacokinetics Study of Single Intravenous and Oral Administration in Mice and Dogs
This experiment was aimed to study the pharmacokinetics of the test compound in mice and dogs in vivo after a single oral administration of the compound.
After intravenous or oral administration, blood samples were collected and the actual blood collection time was recorded. After the blood sample was collected, the sample was immediately transferred to a labeled centrifuge tube containing K2-EDTA, and then the plasma was taken after centrifugation. The plasma was transferred to a precooled centrifuge tube, quickly frozen in dry ice, and stored in an ultra-low temperature refrigerator at −70±10° C. until LC-MS/MS analysis.
Pharmacokinetic software was used to process the plasma drug concentration data of the compound with […] model. The peak concentration (Cmax) and peak time (Tmax), as well as the end time of quantification, were obtained directly from the plasma drug concentration-time graph. The following pharmacokinetic parameters were calculated by logarithmic linear trapezoidal method: half-life (T1/2), apparent distribution volume (Vdss) and clearance rate (Cl), and the area under the time-plasma concentration curve from 0 to the end time point (AUC0-last).

SMILES | IC50 [1] [nM] | TGI (tumor growth inhibition rate) [2] [%] | IC50 [3] [nM] | Apparent distribution volume ([4]; intravenous injection, 2 mg/kg/day) [L/kg] | Maximum plasma drug concentration ([4]; oral, 10 mg/kg/day) [nmol/L] | Peak time ([4]; oral, 10 mg/kg/day) [h] | clearance ([4]; plasma, intravenous injection, 2 mg/kg/day, read-out: Clearance rate) [mL/min/kg] | half-life ([4]; plasma, intravenous injection, 2 mg/kg/day, read-out: Half-life (T1/2) (converted)) [h] | bioavailability ([4]; plasma, oral 10 mg/kg/day vs intravenous 2 mg/kg/day) [%]
[2H]C1([2H])CC(Nc2ncc(Cl)c(-c3ccc4c(c3)S(=O)(=O)N([C@H](C)C(=O)N[C@H](CO)c3cc(F)cc(OC)c3)C4)n2)CC([2H])([2H])O1 [Compound 9] | 14 | 108 | 3.99 |  |  |  |  |  | 
COc1cc(F)cc([C@@H](CO)NC(=O)[C@@H](C)N2Cc3ccc(-c4nc(NC5CCOCC5)ncc4Cl)cc3S2(=O)=O)c1 [Compound 1] | 15 | 107 | 5.88 |  |  |  |  |  | 
COc1cc(F)cc([C@@H](CO)NC(=O)[C@@H](C)N2Cc3ccc(-c4nc(NC5CCOCC5)ncc4Br)cc3S2(=O)=O)c1 [Compound 3] | 13 | 110 | 3.98 | 0.112 | 26700 | 3.00 | 1.34 | 4.3 | 59.8
COc1cc(F)cc([C@@H](CO)NC(=O)[C@@H](C)N2Cc3ccc(-c4nc(N[C@H]5CCOC[C@H]5F)ncc4Cl)cc3S2(=O)=O)c1 [Compound 11] | 16 | 109 | 6.51 |  |  |  |  |  | 
